Reference: paper PMC11768591 (Pharmaceutics, 2024)
Values after ≈ are worked out from the molar mass of the structure shown.

What was measured:
[1] = phosphate buffer at pH 7.2; cited from earlier work
[2] = test system: CFA-induced thermal hyperalgesia; assay: CFA-induced thermal hyperalgesia, paw withdrawal latency; type: in vivo, Male Wistar rats; settings: rat, single oral dose 100 mg/kg
Method: (§1) CFA was administered at a concentration of 1 mg/mL and was previously dissolved in a mixture of paraffin oil (85%) and mannard monooleate (15%), whereas carrageenan was dissolved in an isotonic saline solution at 1%. The drugs were prepared fresh at the desired dose before administration.
(§2) The antihyperalgesic effect of the co-amorphous compound was evaluated using the thermal hyperalgesia model described by Dirig et al., with slight modifications. In this model, the rats were placed in acrylic observation chambers on a thin transparent glass plate maintained at a constant temperature of 30 °C. After a 30 min acclimatization period in the chambers, the animals received an intra-articular injection of 100 µL of CFA (1 mg/mL) or an intra-plantar injection of 50 µL of 1% carrageenan. Paw withdrawal latency to the thermal stimulus was measured before and 1, 2, 3, 4, 5 and 6 h after injection of CFA or carrageenan. To avoid tissue damage, a cutoff time of 20 s was used.
(§3) In the preclinic studies, data were expressed as the average ± S.E.M. of 6 animals per experimental group. […] From the time courses, the area under the curve (AUC) was calculated using the trapezoidal rule as a measure of the duration and intensity of the effects observed with the different treatments. […]

[3] = test system: inflammation induced by Freund's complete adjuvant; assay: CFA-induced inflammation, paw volume by plethysmometer; type: in vivo, Male Wistar rats; settings: rat
Method: (§4) The drugs were prepared fresh at the desired dose before administration. […] In the CFA-induced inflammation model, the rats were briefly anesthetized with isoflurane, via nose cone, titrated to the lowest dose necessary to achieve non-response to distal tail pinch. […] In both models, the paw volume was measured by a digital plethysmometer 7150 (Ugo Basile, Varese, Italy). To measure volume, the injected paw was marked around 1 cm above the tibiotarsal joint with an indelible pen. The paw was immersed up to the mark every time. […] In the […] studies, data were expressed as the average ± S.E.M. of 6 animals per experimental group. For the inflammation and hyperalgesia experiments, time courses of volume change (ΔV in μL) versus time (h) or paw withdrawal latency time (s) versus time (h) were generated, respectively. From the time courses, the area under the curve (AUC) was calculated using the trapezoidal rule as a measure of the duration and intensity of the effects observed with the different treatments. Then, AUC was employed to construct dose-response curves and to compare the different treatments.

[4] = Solubility in distilled water at 37.5 °C (supersaturated, UV/Vis 420 nm); type: physicochemical
Method: (§5) Then, 200 µL aliquots were taken for 1, 5, 10, 30 and 60 min. […] The solubility tests were performed in triplicate.

[5] = Solubility in phosphate buffer pH 6.8 at 37.5 °C (supersaturated, UV/Vis 420 nm); type: physicochemical
Method: as §5

[6] = test system: carrageenan-induced thermal hyperalgesia; assay: Carrageenan-induced thermal hyperalgesia, paw withdrawal latency; type: in vivo, Male Wistar rats; settings: rat, single oral dose 100 mg/kg
Method: as §1, §2, §3

[7] = test system: inflammation induced by carrageenan; assay: Carrageenan-induced inflammation, paw volume by plethysmometer; type: in vivo, Male Wistar rats; settings: rat
Method: as §4

[8] = oral 100–320 mg/kg, 1 h before CFA
[9] = oral 100–320 mg/kg, 1 h before carrageenan
[10] = single oral dose 100 mg/kg (mixture: curcumin 51.4 mg/kg + L-arginine 48.6 mg/kg)

SMILES | half-life in solution [1] | antihyperalgesic effect, CFA-induced thermal hyperalgesia (paw withdrawal latency) [2] | effect on CFA-induced inflammation (paw volume change, AUC) [3, 8] | solubility in distilled water ([4]; after 60 min) [µg/mL] | solubility at 1 min ([4]; distilled water, water, thermodynamic from solid, after 1 min) [µg/mL] | solubility at 60 min ([5]; pH 6.8, after 60 min) [µg/mL] | solubility at 1 min ([5]; pH 6.8, aqueous buffer, thermodynamic from solid, after 1 min) [µg/mL] | antihyperalgesic effect, carrageenan-induced thermal hyperalgesia (paw withdrawal latency) [6] | effect on carrageenan-induced inflammation (paw volume change, AUC) [7, 9] | effect on CFA-induced inflammation (paw volume change, AUC) [3, 10] | effect on carrageenan-induced inflammation (paw volume change, AUC) [7, 10]
COc1cc(/C=C/C(=O)CC(=O)/C=C/c2ccc(O)c(OC)c2)ccc1O [curcumin] | around 10 min | not curcumin or L-arginine, significantly increased the latency time | failed to reverse the inflammatory effects | 0.43 (≈ 1.17 µM) | 0.03 (≈ 0.0814 µM) | 3.75 (≈ 10.2 µM) | 1.36 (≈ 3.69 µM) | antinociceptive effects that were statistically different from the vehicle group | failed to reverse the inflammatory effects | – | –
O=C(O)Cc1ccccc1Nc1c(Cl)cccc1Cl [diclofenac] | – | – | – | – | – | – | – | – | – | have anti-inflammatory effects | have anti-inflammatory effects
N=C(N)NCCC[C@H](N)C(=O)O [L-arginine] | – | not curcumin or L-arginine, significantly increased the latency time | failed to reverse the inflammatory effects | – | – | – | – | antinociceptive effects that were statistically different from the vehicle group | failed to reverse the inflammatory effects | – | –
